Converted amounts (≈) assume the structure as drawn.
What was measured:
Assay type in all cases: functional
Streptococcus pneumoniae [1] = test: Antimicrobial activity against erythromycin-susceptible Streptococcus pneumoniae ATCC 49619 by broth microdilution method
Streptococcus pyogenes [2] = test: Antimicrobial activity against erythromycin-susceptible Streptococcus pyogenes S2 by broth microdilution method
Staphylococcus aureus [3] = test: Antimicrobial activity against erythromycin-susceptible Staphylococcus aureus ATCC 25923 by broth microdilution method
Staphylococcus aureus [4] = test: Antimicrobial activity against penicillin-susceptible Staphylococcus aureus P1 by broth microdilution method
Streptococcus pneumoniae [5] = test: Antimicrobial activity against erythromycin-resistant Streptococcus pneumoniae AB11 expressing the erm and mef gene by broth microdilution method
Streptococcus pneumoniae [6] = test: Antimicrobial activity against erythromycin-resistant Streptococcus pneumoniae B1 expressing the erm gene by broth microdilution method
Streptococcus pyogenes [7] = test: Antimicrobial activity against erythromycin-resistant Streptococcus pyogenes R2 by broth microdilution method
Streptococcus pneumoniae [8] = test: Antimicrobial activity against erythromycin-resistant Streptococcus pneumoniae A22072 expressing the mef gene by broth microdilution method

Structure (SMILES) | MIC (Streptococcus pneumoniae [1]) [µg/mL] | MIC (Streptococcus pyogenes [2]) [µg/mL] | MIC (Staphylococcus aureus [3]) [µg/mL] | MIC (Staphylococcus aureus [4]) [µg/mL] | MIC (Streptococcus pneumoniae [5]) [µg/mL] | MIC (Streptococcus pneumoniae [6]) [µg/mL] | MIC (Streptococcus pyogenes [7]) [µg/mL] | MIC (Streptococcus pneumoniae [8]) [µg/mL]
C=CCNC(=O)O[C@H]1[C@H](C)O[C@@H](O[C@H]2[C@H](C)[C@@H](O[C@@H]3O[C@H](C)C[C@H](N(C)C)[C@H]3O)[C@](C)(OC)C[C@@H](C)C(=O)[C@H](C)[C@@H](O)[C@](C)(O)[C@@H](CC)OC(=O)[C@@H]2C)C[C@@]1(C)OC | 0.25 (≈ 0.301 µM) | 0.03 (≈ 0.0361 µM) | 0.25 (≈ 0.301 µM) | 32 (≈ 38.5 µM) | – | – | – | –
CCCNC(=O)O[C@H]1[C@H](C)O[C@@H](O[C@H]2[C@H](C)[C@@H](O[C@@H]3O[C@H](C)C[C@H](N(C)C)[C@H]3O)[C@](C)(OC)C[C@@H](C)C(=O)[C@H](C)[C@@H](O)[C@](C)(O)[C@@H](CC)OC(=O)[C@@H]2C)C[C@@]1(C)OC | 0.25 (≈ 0.3 µM) | 0.5 (≈ 0.6 µM) | 0.25 (≈ 0.3 µM) | 16 (≈ 19.2 µM) | 32 (≈ 38.4 µM) | 64 (≈ 76.8 µM) | 1 (≈ 1.2 µM) | 2 (≈ 2.4 µM)
CC[C@H]1OC(=O)[C@H](C)[C@@H](O[C@H]2C[C@@](C)(OC)[C@@H](OC(=O)NCCCCCC(=O)NCc3ccc(F)cc3)[C@H](C)O2)[C@H](C)[C@@H](O[C@@H]2O[C@H](C)C[C@H](N(C)C)[C@H]2O)[C@](C)(OC)C[C@@H](C)C(=O)[C@H](C)[C@@H](O)[C@]1(C)O | 0.03 (≈ 0.0296 µM) | 0.03 (≈ 0.0296 µM) | 0.25 (≈ 0.247 µM) | 32 (≈ 31.6 µM) | 4 (≈ 3.95 µM) | 2 (≈ 1.98 µM) | 0.25 (≈ 0.247 µM) | 0.5 (≈ 0.494 µM)
CC[C@H]1OC(=O)[C@H](C)[C@@H](O[C@H]2C[C@@](C)(OC)[C@@H](OC(=O)NCc3ccccc3)[C@H](C)O2)[C@H](C)[C@@H](O[C@@H]2O[C@H](C)C[C@H](N(C)C)[C@H]2O)[C@](C)(OC)C[C@@H](C)C(=O)[C@H](C)[C@@H](O)[C@]1(C)O | 0.25 (≈ 0.284 µM) | 0.12 (≈ 0.136 µM) | 0.25 (≈ 0.284 µM) | 1 (≈ 1.13 µM) | 8 (≈ 9.08 µM) | 4 (≈ 4.54 µM) | 16 (≈ 18.2 µM) | 0.25 (≈ 0.284 µM)
CCCCNC(=O)CCCNC(=O)O[C@H]1[C@H](C)O[C@@H](O[C@H]2[C@H](C)[C@@H](O[C@@H]3O[C@H](C)C[C@H](N(C)C)[C@H]3O)[C@](C)(OC)C[C@@H](C)C(=O)[C@H](C)[C@@H](O)[C@](C)(O)[C@@H](CC)OC(=O)[C@@H]2C)C[C@@]1(C)OC | 0.03 (≈ 0.0322 µM) | 0.5 (≈ 0.536 µM) | 0.25 (≈ 0.268 µM) | 8 (≈ 8.58 µM) | 128 (≈ 137 µM) | 128 (≈ 137 µM) | 16 (≈ 17.2 µM) | 8 (≈ 8.58 µM)
CC[C@H]1OC(=O)[C@H](C)[C@@H](O[C@H]2C[C@@](C)(OC)[C@@H](O)[C@H](C)O2)[C@H](C)[C@@H](O[C@@H]2O[C@H](C)C[C@H](N(C)C)[C@H]2O)[C@](C)(O)C[C@@H](C)CN(C)[C@H](C)[C@@H](O)[C@]1(C)O [AZITHROMYCIN] | 0.03 (≈ 0.0401 µM) | 0.03 (≈ 0.0401 µM) | 0.25 (≈ 0.334 µM) | 0.12 (≈ 0.16 µM) | 256 (≈ 342 µM) | 128 (≈ 171 µM) | 8 (≈ 10.7 µM) | 4 (≈ 5.34 µM)
CC[C@H]1OC(=O)[C@H](C)[C@@H](O[C@H]2C[C@@](C)(OC)[C@@H](OC(=O)NCCCCCC(=O)NCCc3ccccc3Cl)[C@H](C)O2)[C@H](C)[C@@H](O[C@@H]2O[C@H](C)C[C@H](N(C)C)[C@H]2O)[C@](C)(OC)C[C@@H](C)C(=O)[C@H](C)[C@@H](O)[C@]1(C)O | 0.03 (≈ 0.0288 µM) | 0.06 (≈ 0.0575 µM) | 0.25 (≈ 0.24 µM) | 0.5 (≈ 0.48 µM) | 32 (≈ 30.7 µM) | 64 (≈ 61.4 µM) | 64 (≈ 61.4 µM) | 1 (≈ 0.959 µM)
CC[C@H]1OC(=O)[C@H](C)[C@@H](O[C@H]2C[C@@](C)(OC)[C@@H](OC(=O)NCCc3ccc4c(c3)OCO4)[C@H](C)O2)[C@H](C)[C@@H](O[C@@H]2O[C@H](C)C[C@H](N(C)C)[C@H]2O)[C@](C)(OC)C[C@@H](C)C(=O)[C@H](C)[C@@H](O)[C@]1(C)O | 0.06 (≈ 0.0639 µM) | 0.5 (≈ 0.532 µM) | 0.25 (≈ 0.266 µM) | 0.5 (≈ 0.532 µM) | 64 (≈ 68.1 µM) | 32 (≈ 34.1 µM) | 0.5 (≈ 0.532 µM) | 0.25 (≈ 0.266 µM)
CCCCCNC(=O)CCCNC(=O)O[C@H]1[C@H](C)O[C@@H](O[C@H]2[C@H](C)[C@@H](O[C@@H]3O[C@H](C)C[C@H](N(C)C)[C@H]3O)[C@](C)(OC)C[C@@H](C)C(=O)[C@H](C)[C@@H](O)[C@](C)(O)[C@@H](CC)OC(=O)[C@@H]2C)C[C@@]1(C)OC | 0.03 (≈ 0.0317 µM) | 0.5 (≈ 0.528 µM) | 0.5 (≈ 0.528 µM) | 16 (≈ 16.9 µM) | 32 (≈ 33.8 µM) | 8 (≈ 8.45 µM) | 16 (≈ 16.9 µM) | 2 (≈ 2.11 µM)
CC[C@H]1OC(=O)[C@H](C)[C@@H](O[C@H]2C[C@@](C)(OC)[C@@H](OC(=O)NCc3ccc(F)cc3)[C@H](C)O2)[C@H](C)[C@@H](O[C@@H]2O[C@H](C)C[C@H](N(C)C)[C@H]2O)[C@](C)(OC)C[C@@H](C)C(=O)[C@H](C)[C@@H](O)[C@]1(C)O | 0.06 (≈ 0.0667 µM) | 0.03 (≈ 0.0334 µM) | 0.12 (≈ 0.133 µM) | 2 (≈ 2.22 µM) | 8 (≈ 8.9 µM) | 4 (≈ 4.45 µM) | 0.5 (≈ 0.556 µM) | 0.5 (≈ 0.556 µM)
CC[C@H]1OC(=O)[C@H](C)[C@@H](O[C@H]2C[C@@](C)(OC)[C@@H](OC(=O)NCCc3ccccc3Cl)[C@H](C)O2)[C@H](C)[C@@H](O[C@@H]2O[C@H](C)C[C@H](N(C)C)[C@H]2O)[C@](C)(OC)C[C@@H](C)C(=O)[C@H](C)[C@@H](O)[C@]1(C)O | 0.06 (≈ 0.0645 µM) | 0.03 (≈ 0.0323 µM) | 0.12 (≈ 0.129 µM) | 0.25 (≈ 0.269 µM) | 32 (≈ 34.4 µM) | 16 (≈ 17.2 µM) | 0.5 (≈ 0.538 µM) | 0.5 (≈ 0.538 µM)
CC[C@H]1OC(=O)[C@H](C)[C@@H](O[C@H]2C[C@@](C)(OC)[C@@H](OC(=O)NCCCC(=O)NCc3ccc(OC)cc3)[C@H](C)O2)[C@H](C)[C@@H](O[C@@H]2O[C@H](C)C[C@H](N(C)C)[C@H]2O)[C@](C)(OC)C[C@@H](C)C(=O)[C@H](C)[C@@H](O)[C@]1(C)O | 0.03 (≈ 0.0301 µM) | 0.03 (≈ 0.0301 µM) | 0.12 (≈ 0.12 µM) | 8 (≈ 8.03 µM) | 1 (≈ 1 µM) | 0.06 (≈ 0.0602 µM) | 0.5 (≈ 0.502 µM) | 0.25 (≈ 0.251 µM)
CC[C@H]1OC(=O)[C@H](C)[C@@H](O[C@H]2C[C@@](C)(OC)[C@@H](OC(=O)NCCc3ccccc3)[C@H](C)O2)[C@H](C)[C@@H](O[C@@H]2O[C@H](C)C[C@H](N(C)C)[C@H]2O)[C@](C)(OC)C[C@@H](C)C(=O)[C@H](C)[C@@H](O)[C@]1(C)O | 0.03 (≈ 0.0335 µM) | 0.03 (≈ 0.0335 µM) | 0.12 (≈ 0.134 µM) | 0.06 (≈ 0.067 µM) | 64 (≈ 71.5 µM) | 16 (≈ 17.9 µM) | 0.25 (≈ 0.279 µM) | 1 (≈ 1.12 µM)
CC[C@H]1OC(=O)[C@H](C)[C@@H](O[C@H]2C[C@@](C)(OC)[C@@H](O)[C@H](C)O2)[C@H](C)[C@@H](O[C@@H]2O[C@H](C)C[C@H](N(C)C)[C@H]2O)[C@](C)(OC)C[C@@H](C)C(=O)[C@H](C)[C@@H](O)[C@]1(C)O [CLARITHROMYCIN] | 0.03 (≈ 0.0401 µM) | 0.03 (≈ 0.0401 µM) | 0.12 (≈ 0.16 µM) | 0.03 (≈ 0.0401 µM) | 128 (≈ 171 µM) | 64 (≈ 85.6 µM) | 4 (≈ 5.35 µM) | 4 (≈ 5.35 µM)
CCCCNC(=O)O[C@H]1[C@H](C)O[C@@H](O[C@H]2[C@H](C)[C@@H](O[C@@H]3O[C@H](C)C[C@H](N(C)C)[C@H]3O)[C@](C)(OC)C[C@@H](C)C(=O)[C@H](C)[C@@H](O)[C@](C)(O)[C@@H](CC)OC(=O)[C@@H]2C)C[C@@]1(C)OC | 0.25 (≈ 0.295 µM) | 0.25 (≈ 0.295 µM) | 0.25 (≈ 0.295 µM) | 8 (≈ 9.44 µM) | 64 (≈ 75.6 µM) | 64 (≈ 75.6 µM) | 4 (≈ 4.72 µM) | 1 (≈ 1.18 µM)
CC[C@H]1OC(=O)[C@H](C)[C@@H](O[C@H]2C[C@@](C)(OC)[C@@H](OC(=O)NCCCCCC(=O)NC(C)C)[C@H](C)O2)[C@H](C)[C@@H](O[C@@H]2O[C@H](C)C[C@H](N(C)C)[C@H]2O)[C@](C)(OC)C[C@@H](C)C(=O)[C@H](C)[C@@H](O)[C@]1(C)O | 0.06 (≈ 0.0634 µM) | 0.12 (≈ 0.127 µM) | 0.25 (≈ 0.264 µM) | 1 (≈ 1.06 µM) | 128 (≈ 135 µM) | 128 (≈ 135 µM) | 32 (≈ 33.8 µM) | 8 (≈ 8.45 µM)
CC[C@H]1OC(=O)[C@H](C)[C@@H](O[C@H]2C[C@@](C)(OC)[C@@H](OC(=O)NCCCCCC(=O)NCc3ccc(OC)cc3)[C@H](C)O2)[C@H](C)[C@@H](O[C@@H]2O[C@H](C)C[C@H](N(C)C)[C@H]2O)[C@](C)(OC)C[C@@H](C)C(=O)[C@H](C)[C@@H](O)[C@]1(C)O | 0.03 (≈ 0.0293 µM) | 0.12 (≈ 0.117 µM) | 0.12 (≈ 0.117 µM) | 1 (≈ 0.976 µM) | 64 (≈ 62.5 µM) | 64 (≈ 62.5 µM) | 32 (≈ 31.2 µM) | 0.5 (≈ 0.488 µM)
CC[C@H]1OC(=O)[C@H](C)[C@@H](O[C@H]2C[C@@](C)(OC)[C@@H](OC(=O)NCCc3ccc(O)cc3)[C@H](C)O2)[C@H](C)[C@@H](O[C@@H]2O[C@H](C)C[C@H](N(C)C)[C@H]2O)[C@](C)(OC)C[C@@H](C)C(=O)[C@H](C)[C@@H](O)[C@]1(C)O | 0.12 (≈ 0.132 µM) | 0.03 (≈ 0.0329 µM) | 0.25 (≈ 0.274 µM) | 16 (≈ 17.6 µM) | 128 (≈ 140 µM) | 128 (≈ 140 µM) | 0.25 (≈ 0.274 µM) | 4 (≈ 4.39 µM)
C=CCNC(=O)CCCCCNC(=O)O[C@H]1[C@H](C)O[C@@H](O[C@H]2[C@H](C)[C@@H](O[C@@H]3O[C@H](C)C[C@H](N(C)C)[C@H]3O)[C@](C)(OC)C[C@@H](C)C(=O)[C@H](C)[C@@H](O)[C@](C)(O)[C@@H](CC)OC(=O)[C@@H]2C)C[C@@]1(C)OC | 0.03 (≈ 0.0318 µM) | 0.5 (≈ 0.53 µM) | 0.25 (≈ 0.265 µM) | 16 (≈ 16.9 µM) | – | – | – | –
C=CCNC(=O)CCCNC(=O)O[C@H]1[C@H](C)O[C@@H](O[C@H]2[C@H](C)[C@@H](O[C@@H]3O[C@H](C)C[C@H](N(C)C)[C@H]3O)[C@](C)(OC)C[C@@H](C)C(=O)[C@H](C)[C@@H](O)[C@](C)(O)[C@@H](CC)OC(=O)[C@@H]2C)C[C@@]1(C)OC | 0.03 (≈ 0.0327 µM) | 0.03 (≈ 0.0327 µM) | 0.25 (≈ 0.273 µM) | 8 (≈ 8.73 µM) | – | – | – | –
